Several values for one entry are separate records, joined by “and”; a condition that tells them apart may be missing. Identical values can stand only once.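 1) Cells in 96-well plates. 2) Compound, 48 h, 5 concentrations. 3) Linear interpolation between surrounding doses. 4) Unreached endpoint = highest concentration. The concentration for 50% growth inhibition is given as GI50. TGI: concentration producing complete growth inhibition.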
Key:
Assay in all cases: NCI-60 cell line screen, 48 h
786-0 renal = test system: 786-0 renal
A549 NSCLC = test system: A549 NSCLC
BT-549 breast = test system: BT-549 breast
HCT-116 colon = test system: HCT-116 colon
HT29 colon = test system: HT29 colon
MDA-MB-231 breast = test system: MDA-MB-231 breast
MOLT-4 leukemia = test system: MOLT-4 leukemia
NCI-H226 lung = test system: NCI-H226 lung
SNB-75 CNS = test system: SNB-75 CNS
SK-OV-3 ovarian = test system: SK-OV-3 ovarian

Row | SMILES | TGI (786-0 renal) | TGI (A549 NSCLC) | TGI (BT-549 breast) | TGI (HCT-116 colon) | TGI (HT29 colon) | TGI (MDA-MB-231 breast) | TGI (MOLT-4 leukemia) | TGI (NCI-H226 lung) | TGI (SNB-75 CNS) | TGI (SK-OV-3 ovarian) | GI50 (HCT-116 colon) | GI50 (HT29 colon) | GI50 (MDA-MB-231 breast) | GI50 (MOLT-4 leukemia) | GI50 (NCI-H226 lung) | GI50 (SK-OV-3 ovarian)
1 | CC(=O)Nc1nc2c(=O)c3ccccc3sc2s1 | > 100 µM | > 100 µM | > 100 µM | > 100 µM | > 100 µM | > 100 µM | > 100 µM | > 100 µM | > 100 µM | – | – | – | – | – | – | –
2 | C[C@H]1CCC/C=C/[C@@H]2C[C@H](OC(=O)CN(C)C)C[C@H]2[C@H](O)/C=C/C(=O)O1 | > 100 µM | > 100 µM | > 71 µM | 0.746 µM | 1.07 µM | 0.0327 µM | 2.79 µM | 0.133 µM | 99.7 µM | > 100 µM | – | – | – | – | – | –
3 | Cc1cn([C@H]2C[C@@H](N3C(=O)c4ccccc4C3=O)[C@@H](CO[Si](C)(C)C(C)(C)C)O2)c(=O)[nH]c1=O | 81.5 µM | > 100 µM | > 100 µM | > 100 µM | 51.7 µM | > 100 µM | > 100 µM | > 100 µM | 60.8 µM | > 100 µM | – | – | – | – | – | –
4 | Clc1ccc(C(OCn2ccnc2)c2nc3ccccc3[nH]2)c(Cl)c1 (centres undefined) | > 100 µM | > 100 µM | 81.7 µM | > 100 µM | > 100 µM | > 100 µM | > 100 µM | – | > 100 µM | – | – | – | – | – | – | –
5 | Cc1nc2ccc(S(=O)(=O)O)cc2c(=O)n1-c1ccc(C(=O)NN2C(=O)C(Cl)C2c2cccs2)cc1 (centres undefined) | > 100 µM | > 100 µM | > 100 µM | > 100 µM | > 100 µM | 45.1 µM | > 100 µM | > 100 µM | > 100 µM | > 100 µM | – | – | – | – | – | –
6 | O=C(O)CCC(NC(=O)c1ccc(Nc2nc3ccc(C(F)(F)F)cc3nc2C(=O)O)cc1)C(=O)O (centres undefined) | > 100 µM | > 100 µM | > 100 µM | > 100 µM | > 100 µM | > 100 µM | > 100 µM | > 100 µM | > 100 µM | – | – | – | – | – | – | –
7 | C/C=C(/CCC1NCCc2c1[nH]c1ccccc21)[Si](C)(C)C (centres undefined) | – | > 100 µM and 29.7 µM | – | – | – | – | – | > 100 µM and 31.4 µM | > 100 µM and 19.9 µM | > 100 µM and 26.2 µM | – | – | – | – | – | –
8 | CC(C)(C)n1c(=O)n2c(-c3ccccc3)c(-c3ccccc3)n2c1=O | > 100 µM | > 100 µM | > 100 µM | > 100 µM | > 100 µM | > 100 µM | – | > 100 µM | > 100 µM | > 100 µM | – | – | – | – | – | –
9 | CCOc1ccc(OP2(=O)NC(=O)C=C(C)N2)cc1 (centres undefined) | > 100 µM | > 100 µM | – | > 100 µM | > 100 µM | – | > 100 µM | > 100 µM | > 100 µM | > 100 µM | – | – | – | – | – | –
10 | c1ccc(C(NC2=NCCO2)C2CC2)cc1 (centres undefined) | > 100 µM | > 100 µM | – | > 100 µM | > 100 µM | > 100 µM | > 100 µM | > 100 µM | > 100 µM | > 100 µM | – | – | – | – | – | –
11 | COC(=O)N/N=c1\cc(C(=O)Nc2ccc(C)c(C)c2)oc2cc(O)ccc12 | > 100 µM | > 100 µM | – | > 100 µM | > 100 µM | – | > 100 µM | > 100 µM | > 100 µM | > 100 µM | – | – | – | – | – | –
12 | O=C1/C(=C/c2ccc(Br)s2)NC(=S)N1CN1CCCCC1 | > 100 µM | – | 96.8 µM | > 100 µM | > 100 µM | > 100 µM | 66.8 µM | > 100 µM | > 100 µM | – | – | – | – | – | – | –
13 | C=C1CC[C@@H]2[C@](C)(COC(=O)CCC(=O)OC)CCC[C@@]2(C)[C@@H]1CCC1=CC(=O)OC1 | > 100 µM | > 100 µM | > 100 µM | > 100 µM | > 100 µM | > 100 µM | 47.7 µM | > 100 µM | – | > 100 µM | – | – | – | – | – | –
14 | COc1cc(CCN)c(OC)c(OC)c1 | > 100 µM | > 100 µM | > 100 µM | > 100 µM | > 100 µM | > 100 µM | > 100 µM | – | > 100 µM | > 100 µM | – | – | – | – | – | –
15 | Cc1nc2ccccc2n1Cc1nnc(-c2ccccc2)o1 | > 100 µM | > 100 µM | > 100 µM | > 100 µM | > 100 µM | > 100 µM | > 100 µM | – | > 100 µM | > 100 µM | – | – | – | – | – | –
16 | CCCCCCCCCCCCCCCCOP(=O)([O-])OCC[N+](C)(C)C1CC(C)(C)N(O)C(C)(C)C1 | > 100 µM | > 100 µM | > 100 µM | > 100 µM | > 100 µM | > 100 µM | – | > 100 µM | > 100 µM | > 100 µM | – | – | – | – | – | –
17 | C/C=C1/C=CC2c3[nH]c4ccccc4c3CCN2C1 (centres undefined) | > 400 µM | > 400 µM | – | > 400 µM | > 400 µM | – | > 400 µM | > 400 µM | – | > 400 µM | – | – | – | – | – | –
18 | CCOC(=O)c1c(Cl)c2c(n1Cc1ccccc1)-c1oncc1CCC2 | – | – | – | > 100 µM | 8.52 µM | > 100 µM | > 100 µM | > 100 µM | – | > 100 µM | 4.02 µM | 2.95 µM | 3.51 µM | 3.58 µM | > 100 µM | > 100 µM
19 | COC(=O)c1ccc(CCC2=CC(=O)C=CC2=O)cc1 | 5.58 µM | 60.5 µM | 24.4 µM | 25.9 µM | 53.4 µM | > 68.4 µM | 4.92 µM | 48.3 µM | 32 µM | – | – | – | – | – | – | –
20 | Nc1nccc(NCC2(CO)CC(CCc3ccccc3)C2)n1 (centres undefined) | 27.8 µM | 39.7 µM | 40.3 µM | 23 µM | 23.9 µM | 48.9 µM | 41.7 µM | 51.7 µM | 40.5 µM | – | – | – | – | – | – | –
21 | CCN(CC)/[N+]([O-])=N/OS(=O)(=O)N(C)C | > 100 µM | > 100 µM | – | > 100 µM | > 100 µM | > 100 µM | > 100 µM | > 100 µM | > 100 µM | > 100 µM | – | – | – | – | – | –
22 | COc1ccc(OC/C(N)=N/NC(=O)c2ccncc2)cc1 | > 100 µM | > 100 µM | > 100 µM | > 100 µM | > 100 µM | > 100 µM | > 100 µM | – | > 100 µM | > 100 µM | – | – | – | – | – | –
23 | O=S1(=O)C(=C(c2ccccc2)c2ccccc2)S(=O)(=O)c2ccccc21 | – | > 100 µM | – | > 100 µM | > 100 µM | – | > 100 µM | > 100 µM | 44.4 µM | > 100 µM | – | – | – | – | – | –
24 | NC(Cc1cc(I)c(Oc2ccc(O)c(I)c2)c(I)c1)C(=O)O (centres undefined) | > 100 µM | > 100 µM | > 100 µM | > 100 µM | > 100 µM | > 100 µM | – | > 100 µM | > 100 µM | > 100 µM | – | – | – | – | – | –
